The subject of one data set is aspartic proteases. The experiment in a line: IgG degradation by pepstatin A affinity purified aspartic proteases. In kind it is biochemical, Trichoderma reesei. The following applies: 10 μM pepstatin A; pH 5.5, 37°C, 20 hours. On the procedure:
The T. reesei fed batch fermentation supernatant (15 ml) was used to batch bind proteases to the resin in 35 ml of buffer containing 50 mM sodium acetate, 0.2 M NaCl, pH 3.0. The column was washed with the same binding buffer and bound protein was removed with elution buffer (50 mM Tris-HCL, 1 M NaCl, pH 8.5). Fractions of 0.5 ml were collected. In total 42 μg of protease was purified. The peak fraction contained 0.04 μg/μl protein. 30 μl of each fraction was mixed with 6 μl of Laemmli sample buffer containing β-mercaptoethanol. The samples were heated at 95° C. for 5 minutes before being loaded into a 4-15% PAGE gel (BioRad mini-protean TGX precast gel) along with a broad range prestained molecular weight marker (BioRad). The gel was run in SDS PAGE running buffer for 30 minutes at 100 V, and then stained with GelCode (Thermo Scientific) blue stain.
Protein (0.8 μg) from the peak fraction (F3) was then incubated with IgG (50 μg ml) in sodium citrate buffer (50 mM, pH 5.5) at 37° C. for 20 hours (FIG. 2). The protein was incubated either in the presence or absence of 10 μM pepstatin A. The antibody mixture was combined with Laemmli sample buffer and heated at 95° C. for 5 minutes. These samples were then loaded into a 4-15% PAGE gel (BioRad mini-protean TGX precast gel) along with a broad range prestained molecular weight marker (BioRad). […]

Data set [1] deals with rituximab antibody producing strain. Put plainly: Treatment of T. reesei rituximab cultures with inhibitors. Format: cell-based, Trichoderma reesei. The following applies: small shake flasks, inhibitors added daily day 2-5. On the procedure: The effectiveness of the inhibitors was also tested with the rituximab antibody producing strain, which contains a VALEKR linker sequence and the pep1 deletion. This strain was grown in triplicate, in small flasks both in presence or absence of chymostatin, SBTI, or pepstatin A. The small shake flasks contained 50 ml of TrMM plus lactose (40 g/l), spent grain extract (20 g/l), and buffer with 100 mM PIPPS at pH 5.5. The SBTI inhibitor was added to the culture at final concentrations of either 100 μg/ml or 500 μg/ml. Chymostatin was used at 100 μM, and pepstatin A was used at 10 μM. Each of the three inhibitors was added to the cultures daily on day 2, 3, 4, and 5.
Growth of the cultures was followed daily by pH from day 2 until day 7. […] In the PIPPS buffered cultures, the pH decreased from an initial pH of 5.5 down to a pH of 4.8 after day 6. With chymostatin and pepstatin A the cultures were monitored up to day 7. On day 7 the average pH for the control bottles was 4.6, while the average pH for chymostatin treated cultures was 4.9, and the average pH of pepstatin A treated cultures was 5.0.
Culture supernatant samples (30 μl) were also collected on days 3, 4, and 5 for analysis of antibody production. The analysis was performed by immunoblots using an anti-IgG heavy chain antibody AP conjugate (Sigma #A3188) and an anti-light chain antibody AP conjugate (Sigma #A3812). Each antibody was diluted 1:30,000 in TBST. The full length rituximab heavy chain is about 51 kD, the rituximab light chain CHBI fusion is about 100 kD, and the free rituximab light chain is about 28 kD.

In data set [2] the test system is M369 human growth hormone strain. The experiment in a line: hGH production in 24 well cultures with inhibitors and supplements. Particulars: 24 well culture, pH 4.5, day 4 immunoblot. In kind it is cell-based, Trichoderma reesei. On the procedure:
To evaluate what inhibitors would best stabilize production of hGH, 24 well cultures of these strains were performed. The M369 human growth hormone strain (Δpep1Δtsp1Δslp1Δgap1Δgap2) was grown along with single components or with combinations of the following: trypsin and subtilisin inhibitor SBTI, the acidic protease inhibitor peptide SIP, the acidic protease inhibitor peptide LIP, the aspartic protease inhibitor pepstatin A free peptide, pepstatin A immobilized to agarose beads, the trypsin and subtilisin inhibitor BBI from lima bean, the […] chymostatin, and BSA. Three independent wells were chosen for control wells where no inhibitors or supplements were added. These two strains were grown in 3 ml of TrMM with diammonium citrate without ammonium sulfate, 100 mM PIPPS, 20 g/L spent grain extract, 40 g/L lactose adjusted to pH 4.5. The 24 well plates were shaken at 800 rpm, 85% humidity, and 28° C. The cultures were grown for 6 days and covered with an air permeable membrane.
Inhibitors were added first on day 1 and then daily beginning on day 3. 100 μl samples were taken from the culture wells beginning on day 3. The mycelium was spun down for 5 minutes at 13 k and the supernatant collected. From the culture supernatant 12 μl was loaded in a 4-20% SDS PAGE gel and immunoblotting made on nitrocellulose with mouse anti-hGH antibody (2 μg/ml) and goat anti-mouse IgG AP conjugated secondary antibody diluted 1:10,000 in TBST.
Estimating the expression levels relative to the 200 ng control sample, the control wells produced between 3-6 mg/L of hGH, the BSA (0.25%)/SIP (50 μM)/8BTI (0.2 mg/ml) treatment produced 24.5 mg/L, the SIP (50 μM)/8BTI (0.2 mg/ml) treatment produced 26.6 mg/L, and the pepstatin A beads/SBTI (0.2 mg/ml) addition yielded 24.5 mg/L of hGH. Therefore, using a combination of inhibitors and additives worked best increasing the production levels by at least 4-fold. The critical parameter was to include an aspartic protease inhibitor into the mix.
A general note: Immunoblotting shows a protein as a band on a membrane.

Data set [3] has as its system SIP purified proteases (PEP2, PEP3, PEP4, PEP5, GAP1, SLP2). The experiment in a line: Protease activity of SIP purified fractions against casein with inhibitors (EnzChek). In kind it is biochemical, Trichoderma reesei. Particulars: pH 5.5. On the procedure:
Protease activity was then tested against casein both in the presence and absence of protease inhibitors. Protease activity against casein was tested using the EnzChek protease assay kit (Molecular probes #E6638, green fluorescent casein substrate). The working stock solution was prepared by diluting the stock to 10 μg ml in 50 mM sodium citrate, pH 5.5. The purified protease fractions (10 μl) were diluted with […] of sodium citrate, pH 5.5. 100 μl of the diluted substrate was combined with the diluted protease fractions in a 96 well sample plate. The plate was then covered and kept at 37° C. for one to three hours. Fluorescence readings were taken at one, two, and three hours with a Varioskan fluorescent plate reader (Thermo Scientific) using 485 nm excitation and 530 nm emission.
The SIP inhibitor peptide, pepstatin A, LIP peptide, SBTI, and chymostatin were used as inhibitors. […] SIP, LIP, and pepstatin A were used at a concentration of 60 μM, and SBTI was used at a concentration of 200 μg/ml.

This is an account of results in patent US11180767B2, “Protease deficient filamentous fungal cells and methods of use thereof” (GLYKOS FINLAND OY, priority 2012, dated 2021).

Non-standard residues stand in square brackets, D forms with d. Residues, ends and D or L forms follow the SMILES beside them. *: point of attachment. Sta = CC(C)C[C@H](N)[C@@H](O)CC(=O)O; Isovaleryl = CC(C)CC(=O)*

As for `CC(C)CC(=O)N[C@H](C(=O)N[C@H](C(=O)N[C@@H](CC(C)C)[C@@H](O)CC(=O)N[C@@H](C)C(=O)N[C@@H](CC(C)C)[C@@H](O)CC(=O)O)C(C)C)C(C)C` [pepstatin A] (Isovaleryl-VV[Sta]A[Sta]-OH), in the data set on aspartic proteases, the “IgG degradation by aspartic proteases” value is “inhibited”. Moreover, the “effect on culture growth (followed by pH)” value in data set [1] is reported as “small reduction in growth”. Moreover, the “effect on hGH production” value in data set [2] is on record as “negative effect on the growth hormone production”. For the same compound, in data set [3] (SIP, LIP, pepstatin A 60 μM, SBTI 200 μg/ml), the proteases inhibited entry is recorded as “inhibited only aspartic proteases”. Moreover, in data set [3] (FIG. 11), the “inhibition of SIP purified protease activity against casein” value is reported as “a large portion of the SIP protease activity was inhibited”.
